Results taken from US4650804A, “Quinolizinone compounds and pharmaceutical composition comprising the same, useful as anti-ulcerative and anti-allergic agents” (Fujisawa Pharmaceutical Co., Ltd., priority 1984, dated 1987).
Values joined by “and” are separate entries in the source; they are usually repeats but may differ in a detail not shown here. Equal values may be shown once.

Tests used:
[1] = Inhibition on stress ulcer; type: in vivo, Sprague-Dawley rats; settings: 32 mg/kg, oral, 22° C. water bath, 7 hours; for Ulcer index Mean ± S. E. / Ulcer index (individual animals): just before immobilization; for Ulcer index Mean ± S. E.: 5 animals; for Ulcer index (individual animals): single animals No. 1-5; for Inh. %: ulcer index inhibition vs control
Procedure: (A) Inhibition on stress ulcer
Sprague-Dawley rats weighing about 200 g were used. Each animal was immobilized in a small cage and put in a water bath allowing to respire. The temperature of the water bath kept at 22° C. The test compound .circle.A and .circle.B were administered orally just before the immobilization. Seven hours later, the animals were sacrificed and their stomachs were removed. The stomach was then fixed with 2% formalin. The area of ulcers was measured for each animal. The mean area (mm^2) in the test animals was compared with that in the control animals.

[2] = Effect on passive cutaneous anaphylaxis (PCA); type: in vivo, female Sprague-Dawley rats; settings: intravenously with the antigen
Procedure: (B) Effect on passive cutaneous anaphylaxis (pCA).
Recipient animals for PCA reactions were female Sprague-Dawley rats, 7 weeks old, 180 g-200 g (Nihon Kurea). Each experiment included 5 observations.
Five times crystallized ovalbumin (OVA) (Sigma Lot, 31F-8061) was used as antigen.
Female BDFl mice, 7 weeks old (Nihon Kurea), were given a primary injection (left foot pad, s.c.) of 100 mcg OVA in 0.05 ml saline and after 20 days a booster injection by the same route. Blood was collected 28 days after the primary injection and the sera were stored at -80° C.
The animals were shared with an electric clipper in advance and prepared for Passive Cutaneous Anaphylaxis (PCA) by injecting 0.05 ml of mouse antiserum dilutions (1/16, 1/32) in each side of the dorsal skin.
They were then challenged 48 hours later with an intravenous injection of 1 ml of 0.5% Evans Blue containing 5 mg OVA. Fifty minutes later, they were killed and the lesions (diameter) measured.
A minimal skin response was one with a 5 mm or greater diameter blue spot measured on the dermal side of reflected skin. Drug activity was estimated using the following formula; [formula]
Drugs were suspended in 0.1% methyl cellulose/saline and given intravenously with the antigen.

Row | Structure (SMILES) | Ulcer index Mean ± S. E. [1] | Ulcer index (individual animals) [1] | Inh. % [1] | Inhibition (%) ([2]; 1 mg/kg, Antiserum concentration 1/16) | Inhibition (%) ([2]; 1 mg/kg, Antiserum concentration 1/32) | Inhibition (%) ([2]; 10 mg/kg, Antiserum concentration 1/16) | Inhibition (%) ([2]; 10 mg/kg, Antiserum concentration 1/32)
1 | O=C(Nc1nn[nH]n1)c1cc(-c2ccccc2)c2ccccn2c1=O [Compound .circle.B, N-[5-(1H-Tetrazolyl)]-1-phenyl-4H-quinolizin-4-one-3-carboxamide] | 8.4 ± 1.9 mm^2 | 10 mm^2 and 11 mm^2 and 3 mm^2 and 5 mm^2 | 83.7% |  |  |  | 
2 | O=C(Nc1nn[nH]n1)c1ccc2ccccn2c1=O [Compound .circle.A, N-[5-(1H-Tetrazolyl)]-4H-quinolizin-4-one-3-carboxamide] | 6.2 ± 3.0 mm^2 | 18 mm^2 and 5 mm^2 and 3 mm^2 and 4 mm^2 and 1 mm^2 | 67.7% | 97.2% | 100% | 94.5% | 100%
